Laboratory results published in PubChem BioAssay AID651897 (Broad Institute, 2012).

Target: cruzain (cruzipain), Trypanosoma cruzi
Experiment: cruzain protease inhibitors, dose response, biochemical, dry powder (AID 651897)
Details: purified recombinant cruzain, Z-Phe-Arg-AMC fluorescence

C[C@H]1CN([C@@H](C)CO)C(=O)c2cccc(NC(=O)c3ccncc3)c2O[C@@H]1CN(C)Cc1ccc(Oc2ccccc2)cc1
IC50: 13.2 µM
